Measured values as given in US10501460B2, “Heterocyclic compounds and uses thereof” (Plexxikon Inc., priority 2013, dated 2019).

What was measured:
MV-4-11 = assay: Oncology cell growth assay MV-4-11 (CellTiter Glo, 72 hours); type: cell-based; details: Homo sapiens, MV4-11, 72 h; MV-4-11 cell growth inhibitory activity, 3d
Method in brief: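 MV-4-11 cells (MLL-AF4 AML) exposed 72 h to 8-point 1:3 titration, top final 10 μM, 0.2% DMSO. CellTiter Glo luminescence as cell-number readout, normalized to DMSO controls; pIC50 from four-parameter fit.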

bromodomain = assay: Bromodomain cell assays of Example 40 (at least one of them); type: cell-based; details: in at least one of the bromodomain cell assays described in Example 40
Method in brief: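 Growth inhibition: 3000 MV-4-11, MOLM-13, MM.1S or neuroblastoma cells/well got an 8-point 1:3 series from 10 μM top (0.2% DMSO) for 72 h, then CellTiter-Glo luminescence. Myc reporter: MV-4-11 with E-box firefly luciferase, 24 h exposure, One-Glo luminescence plus CellTiter-Fluo cell count. pIC50 from four-parameter fit.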

Compound	IC50 (MV-4-11) [µM]	IC50 (bromodomain) [µM]
C=CCn1cc(-c2cn(S(=O)(=O)CCC(F)(F)F)c3cc(-c4c(C)noc4C)cnc23)cn1 [P-0129, 4-[3-(1-allylpyrazol-4-yl)-1-(3,3,3-trifluoropropylsulfonyl)pyrrolo[3,2-b]pyridin-6-yl]-3,5-dimethyl-isoxazole]	≤ 1	< 10
Cc1noc(C)c1-c1cnc2c(-c3cnn(C(F)F)c3)cn(S(=O)(=O)c3ccccc3)c2c1 [P-0131, 4-[1-(benzenesulfonyl)-3-[1-(difluoromethyl)pyrazol-4-yl]pyrrolo[3,2-b]pyridin-6-yl]-3,5-dimethyl-isoxazole]	≤ 1	< 10
Cc1noc(C)c1-c1cnc2c(-c3cnn(C(F)F)c3)cn(S(=O)(=O)c3ccccc3F)c2c1 [P-0132, 4-[3-[1-(difluoromethyl)pyrazol-4-yl]-1-(2-fluorophenyl)sulfonyl-pyrrolo[3,2-b]pyridin-6-yl]-3,5-dimethyl-isoxazole]	≤ 1	< 10
Cc1noc(C)c1-c1cnc2c(-c3cnn(C(F)F)c3)cn(S(=O)(=O)C3CCC3)c2c1 [P-0134, 4-[1-cyclobutylsulfonyl-3-[1-(difluoromethyl)pyrazol-4-yl]pyrrolo[3,2-b]pyridin-6-yl]-3,5-dimethyl-isoxazole]	≤ 1	< 10
CCCS(=O)(=O)n1cc(-c2cnn(C(F)F)c2)c2ncc(-c3c(C)noc3C)cc21 [P-0135, 4-[3-[1-(difluoromethyl)pyrazol-4-yl]-1-propylsulfonyl-pyrrolo [3,2-b]pyridin-6-yl]-3,5-dimethyl-isoxazole]	≤ 1	< 10
Cc1noc(C)c1-c1cnc2c(-c3cnn(C(F)F)c3)cn(S(=O)(=O)CCC(F)(F)F)c2c1 [P-0136, 4-[3-[1-(difluoromethyl)pyrazol-4-yl]-1-(3,3,3-trifluoropropylsulfonyl)pyrrolo[3,2-b]pyridin-6-yl]-3,5-dimethyl-isoxazole]	1 to 10	< 10
C=CCn1cc(-c2cn(S(=O)(=O)CCC)c3cc(-c4c(C)noc4C)cnc23)cn1 [P-0137, 4-[3-(1-allylpyrazol-4-yl)-1-propylsulfonyl-pyrrolo[3,2-b]pyridin-6-yl]-3,5-dimethyl-isoxazole]	≤ 1	< 10
C=CCn1cc(-c2cn(S(=O)(=O)C(C)CC)c3cc(-c4c(C)noc4C)cnc23)cn1 (stereo not drawn) [P-0138, 4-[3-(1-allylpyrazol-4-yl)-1-sec-butylsulfonyl-pyrrolo[3,2-b]pyridin-6-yl]-3,5-dimethyl-isoxazole]	≤ 1	< 10
C=CCn1cc(-c2cn(S(=O)(=O)C3CC3)c3cc(-c4c(C)noc4C)cnc23)cn1 [P-0139, 4-[3-(1-allylpyrazol-4-yl)-1-cyclopropylsulfonyl-pyrrolo[3,2-b]pyridin-6-yl]-3,5-dimethyl-isoxazole]	≤ 1	< 10
C=CCn1cc(-c2cn(S(=O)(=O)CC3CC3)c3cc(-c4c(C)noc4C)cnc23)cn1 [P-0140, 4-[3-(1-allylpyrazol-4-yl)-1-(cyclopropylmethylsulfonyl)pyrrolo[3,2-b]pyridin-6-yl]-3,5-dimethyl-isoxazole]	≤ 1	< 10
Cc1noc(C)c1-c1cnc2[nH]cc(Sc3cccc(F)c3)c2c1 [P-0141, 4-[3-(3-fluorophenyl)sulfanyl-1H-pyrrolo[2,3-b]pyridin-5-yl]-3,5-dimethyl-isoxazole]	1 to 10	< 10

Results, then the compound that gave them:

IC50 (MV-4-11) [µM]	IC50 (bromodomain) [µM]	Compound
1 to 10	< 10	Cc1noc(C)c1-c1cnc2[nH]cc([S+]([O-])c3cccc(F)c3)c2c1 (stereo not drawn) [P-0142, 4-[3-(3-fluorophenyl)sulfinyl-1H-pyrrolo[2,3-b]pyridin-5-yl]-3,5-dimethyl-isoxazole]
≤ 1	< 10	Cc1noc(C)c1-c1cnc2[nH]cc(S(=O)(=O)c3cccc(F)c3)c2c1 [P-0143, 4-[3-(3-fluorophenyl)sulfonyl-1H-pyrrolo[2,3-b]pyridin-5-yl]-3,5-dimethyl-isoxazole]
1 to 10	< 10	Cc1noc(C)c1-c1cnc2[nH]cc(Sc3ccccc3)c2c1 [P-0144, 3,5-dimethyl-4-(3-phenylsulfanyl-1H-pyrrolo[2,3-b]pyridin-5-yl)isoxazole]
≤ 1	< 10	Cc1noc(C)c1-c1cnc2[nH]cc(S(=O)(=O)c3ccccc3)c2c1 [P-0145, 4-[3-(benzenesulfonyl)-1H-pyrrolo[2,3-b]pyridin-5-yl]-3,5-dimethyl-isoxazole]
≤ 1	< 10	Cc1noc(C)c1-c1cnc2c(-c3cnn(CC(F)(F)F)c3)cn(S(=O)(=O)c3ccccc3)c2c1 [P-0146, 4-[1-(benzenesulfonyl)-3-[1-(2,2,2-trifluoroethyl)pyrazol-4-yl]pyrrolo[3,2-b]pyridin-6-yl]-3,5-dimethyl-isoxazole]
≤ 1	< 10	COCCn1cc(-c2cn(S(=O)(=O)c3ccccc3)c3cc(-c4c(C)noc4C)cnc23)cn1 [P-0147, 4-[1-(benzenesulfonyl)-3-[1-(2-methoxyethyl)pyrazol-4-yl]pyrrolo[3,2-b]pyridin-6-yl]-3,5-dimethyl-isoxazole]
≤ 1	< 10	Cc1noc(C)c1-c1cnc2c(-c3cnn(C4CCOC4)c3)cn(S(=O)(=O)c3ccccc3)c2c1 (stereo not drawn) [P-0148, 4-[1-(benzenesulfonyl)-3-(1-tetrahydrofuran-3-ylpyrazol-4-yl)pyrrolo[3,2-b]pyridin-6-yl]-3,5-dimethyl-isoxazole]
≤ 1	< 10	Cc1noc(C)c1-c1cnc2c(-c3cnn(CC(F)(F)F)c3)cn(S(=O)(=O)C3CCCC3)c2c1 [P-0149, 4-[1-cyclopentylsulfonyl-3-[1-(2,2,2-trifluoroethyl)pyrazol-4-yl]pyrrolo[3,2-b]pyridin-6-yl]-3,5-dimethyl-isoxazole]
≤ 1	< 10	CCCS(=O)(=O)n1cc(-c2cnn(CC(F)(F)F)c2)c2ncc(-c3c(C)noc3C)cc21 [P-0150, 3,5-dimethyl-4-[1-propylsulfonyl-3-[1-(2,2,2-trifluoroethyl)pyrazol-4-yl]pyrrolo[3,2-b]pyridin-6-yl]isoxazole]
≤ 1	< 10	COCCn1cc(-c2cn(S(=O)(=O)C3CCCC3)c3cc(-c4c(C)noc4C)cnc23)cn1 [P-0151, 4-[1-cyclopentylsulfonyl-3-[1-(2-methoxyethyl)pyrazol-4-yl]pyrrolo[3,2-b]pyridin-6-yl]-3,5-dimethyl-isoxazole]
≤ 1	< 10	CCCS(=O)(=O)n1cc(-c2cnn(CCOC)c2)c2ncc(-c3c(C)noc3C)cc21 [P-0152, 4-[3-[l-(2-methoxyethyl)pyrazol-4-yl]-1-propylsulfonyl-pyrrolo [3,2-b]pyridin-6-yl]-3,5-dimethyl-isoxazole]
≤ 1	< 10	Cc1noc(C)c1-c1cnc2c(-c3cnn(C4CCOC4)c3)cn(S(=O)(=O)C3CCCC3)c2c1 (stereo not drawn) [P-0153, 4-[1-cyclopentylsulfonyl-3-(1-tetrahydrofuran-3-ylpyrazol-4-yl)pyrrolo [3,2-b]pyridin-6-yl]-3,5-dimethyl-isoxazole]
≤ 1	< 10	CCCS(=O)(=O)n1cc(-c2cnn(C3CCOC3)c2)c2ncc(-c3c(C)noc3C)cc21 (stereo not drawn) [P-0154, 3,5-dimethyl-4-[1-propylsulfonyl-3-(1-tetrahydrofuran-3-ylpyrazol-4-yl)pyrrolo [3,2-b]pyridin-6-yl] isoxazole]
